Key:
IL-6 = assay: Spontaneous IL-6 secretion by cultured monocytes, B9.9 hybridoma bioassay; format: cell-based, human
Method: FIG. 6 is a graph that illustrates the effects of relatively low doses of CdA used to contact monocytes for a 72 hour time period. Monocyte release of interleukin-6 (IL-6; closed diamonds) and phagocytosis of antibody-coated red blood cells (RBC; closed squares) were examined, as was the viability of the cultured monocytes (open squares). Effects are expressed as a percentage of control values versus the CdA concentration in nanomoles (nM).
The ability of dialyzed culture supernatants to promote proliferation of B9.9 hybridoma cells is a measure of IL-6 activity (Helle et al. (1988) Eur. J. Immunol., 18:1535-1540). Monocytes spontaneously secrete IL-6 upon adherence to plastic during short-term in vitro culture (Guerne et al. (1989) J. Clin. Invest., 83:585-592). Monocytes cultured in autologous plasma 20 percent for three days secreted approximately 18 U per ml of IL-6, as determined by the bioassay standard curve using rIL-6.
The spontaneous secretion, of IL-6 by cultured monocytes was measured by the hybridoma growth factor bioassay as described by Guerne et al. (1989) J. Clin. Invest., 83:585-592. In this assay, the proliferation of a B9.9 murine hybridoma subclone is dependent on the presence of IL-6. […]

[1] = tested on: delayed-type hypersensitivity (DTH) response; assay: Delayed-type hypersensitivity to ovalbumin in guinea pigs, oral and intraperitoneal treatment; format: in vivo, guinea pig; details: dexamethasone 5 mg/kg, CdA or CAFdA 1 mg/kg, 24 and 48 hours, p<0.01
Method: (§1) Delayed-type hypersensitivity (DTH) is a cell-mediated immune response that typically takes longer than 12 hours to develop. In the guinea pig, a DTH reaction to an antigen can be established by first immunizing the animal with the antigen in an adjuvant such as Freund's complete adjuvant. Subsequent intradermal injection of the antigen causes no change for at least 10 hours, after which there is a gradual increase in erythema and swelling in response to antigen injection. This response peaks about at about 24 hours after challenge, then gradually subsides.
Histologically, the inflammatory response is characterized by intense inundation of the site with mononuclear cells, of which about half are lymphocytes and the other half monocytes. DTH is therefore an indicator of a monocyte-mediated immune reaction.
In one study, guinea pigs were sensitized to ovalbumin in adjuvant. The animals were then treated either orally or intraperitoneally with saline (control), dexamethasone (5 mg/kg), CdA (1 mg/kg) or CAFdA (1 mg/kg). The animals were then injected with ovalbumin intradermally to elicit the DTH response. The mean area of the swelling size was measured for each animal (nine or ten animals were treated for each protocol).

multiple sclerosis = assay: Treatment of chronic multiple sclerosis patients with CdA; format: in vivo, human
Method: A study of four patients with chronic multiple sclerosis was undertaken. Each patient was first examined for normal hepatic, renal, and bone marrow functioning to establish baseline values. Each of the patients was then treated with CdA dissolved in sterile preservative-free isotonic saline. The CdA was administered intravenously at a dosage of 0.1 mg/kg each day for a total of seven days. Each patient received six courses of intravenous therapy, once monthly for a total of six months. Patients were examined on a daily basis while hospitalized. During that time, daily blood counts and twice weekly blood chemistries were performed on each patient. CdA levels were also measured in blood and spinal fluid.
The neurologic function of each of these patients was measured using the expanded Krutzke disability status scale (EDSS), and the neurologic rating scale (NRS).

[2] = tested on: delayed-type hypersensitivity (DTH) reaction; assay: Delayed-type hypersensitivity to ovalbumin in guinea pigs, different dosages of CdA; format: in vivo, guinea pig; details: for swelling compared to control saline treated animals: 24 and 48 hours post-challenge, p<0.01
Method: as §1
In another study, the effects of different dosages of CdA on the DTH reaction were examined. Guinea pigs sensitized to ovalbumin were treated with saline (control), dexamethasone (5 mg/kg), and CdA at 1 mg/kg or 0.1 mg/kg. Three days after treatment, the animals were challenged with ovalbumin intradermally. The areas of the skin lesions were measured at 6, 24, and 48 hours after challenge.

Nc1nc(Cl)nc2c1ncn2[C@H]1C[C@H](O)[C@@H](CO)O1 [CdA, 2-chloro-9,1'-beta-D-2'-deoxyribosyladenine] was tested, and the “supernatant IL-6” value (IL-6; cytotoxic concentrations of CdA) was “high levels of IL-6”, the “spontaneous secretion of IL-6 into the culture supernatant” value (IL-6; sub-toxic concentrations of CdA, three days) was “inhibited the spontaneous secretion of IL-6” and the “swelling after ovalbumin challenge compared to saline control” value ([1]; intraperitoneal) was “significant inhibition of swelling”. The “swelling after ovalbumin challenge compared to saline control” value ([1]; oral) was “ineffective”, the “cerebrospinal fluid IgG oligoclonal bonds” value (multiple sclerosis; all cases) was “complete disappearance” and the platelet counts (multiple sclerosis; all four patients) was “remained within the normal range”. The macrocytosis (multiple sclerosis; all patients, lasting six to eight months after cessation of treatment) was “modest macrocytosis”, the monocyte level (multiple sclerosis; another patient, after two treatments) was “substantially absent” and the “neurologic function, EDSS and NRS scales” value (multiple sclerosis; during treatment with CdA) was “evidence of improvement in all four patients”. The toxic side effects (multiple sclerosis; four patients, 0.1 mg/kg each day i.v. for seven days, six monthly courses) was “no evidence of any significant toxic side effects”, the “cerebrospinal fluid lymphocyte counts” value (multiple sclerosis; human, in vivo) was “marked drop” and the “total CFS IgG” value (multiple sclerosis; human, in vivo) was “no significant change”. For the same molecule, the monocyte drop (multiple sclerosis; one patient, after the first treatment) was 40%, the monocyte level (multiple sclerosis; same patient, after each of the remaining five treatments) was “substantially absent” and the “numerical values of the areas of swelling relative to dexamethasone” value ([2]; 0.1 and 1.0 mg/kg CdA, substantially the same) was “slightly less than the value obtained with dexamethasone”. The “swelling compared to control saline treated animals” value ([2]; CdA 0.1 mg/kg) was “effective at inhibiting swelling” and the “swelling compared to control saline treated animals” value ([2]; CdA 1 mg/kg) was “effective at inhibiting swelling”.

Source: patent publication US5506213A, “Adminstration of 2'-halo-2'-deoxy adenosine to treat inflammatory bowel disease” (priority 1994, dated 1996)
